The solubility is the concentration that dissolves in the medium under given conditions. A word on the Cmax: it is the highest concentration seen after dosing. The term inhibition denotes the change of the read-out against control, counted positive when it falls. A word on the IC50: it is the concentration that inhibits the measured activity by half.

Molecules are shown by their SMILES. Where two headings read alike, the source gives them in different places. A value given as a limit tells only on which side of the number the result lay.

This is an account of results in patent US9073955B2, “2-amino-4-arylthiazole compounds as TRPA1 antagonists” (Glenmark Pharmaceuticals, S.A., priority 2010, dated 2015).

Data set [1] can be described thus: Determination of solubility by shake flask method (water). The class given is physicochemical. The note with it: for solubility at 15 min: thermodynamic from solid, water, 37° C., shake flask; for aqueous solubility over the parent thiazole acetamide: compared with the corresponding parent compound of formula (1). As for the experimental part: About 1 mg of test substance was taken in test tube and water was added in the increment of 1 ml with shaking after addition of media (water). Solubility was observed visually also. After completion of addition of 10 ml volume of media (water), test tube containing sample solution were put on a mechanical shaker set at 37° C. and 200 rpm for shaking up to 15 minute. After shaking, content of flask was filtered through 0.45μ filter. This filtered solution is analyzed using HPLC method for quantification. A sample solution of 1 mg in 10 ml of DMSO is used as reference standard for quantifying dissolved test substance in media. Solubility is expressed as mcg/ml.
Aqueous solubility of ‘P’ substituted thiazole compounds and the parent thiazole compounds were determined using the above described procedure and the results are given Table 3.

Data set [2] is described as follows: Rat pharmacokinetic (PK) study, oral suspension. The note with it: for Cmax / AUC(0-t): rat, plasma, parent thiazole compound of the example, male Sprague Dawley rats, oral suspension; for AUC(0-t): read-out: AUC0-24; for pharmacokinetic properties (Cmax and AUC) compared to the parent thiazole acetamide: compared with the corresponding parent compound of formula (1). Type of data set: in vivo, male rats (Sprague Dawley). The protocol: PK values were obtained in male rats (strain: Sprague Dawley) orally dosed with the compounds of the present invention as suspension. Accurately weighed quantity of compound of present invention (corrected for purity and salt factor) was transferred into a clean and dry mortar. To this mortar was added 2.5 μL/mL Tween 80 and triturated until the compound gets properly wet. To this, 0.5% (w/v) methyl cellulose suspension was added in geometric proportions and triturated thoroughly to form a uniform suspension.
Animals were provided with food and water ad libitum through out the study period. Animals were dosed orally with the compounds using a gavage needle at 10 mL/kg body weight. Blood samples (250 μl approx.) were collected from male Sprague Dawley retro orbital sinus using rat capillary tubes into 0.6 mL eppendorf tubes with tripotassium ethylenediaminetetraacetic acid (K3 EDTA) (25 μL) as anticoagulant. Samples were collected at 0.5, 1.0, 2.0, 4.0, 6.0, 8.0, 12.0 and 24.0 hr post dosing for compounds. Then samples were centrifuged immediately at 1000 g for 10 min. at 4° C. Plasma samples were separated and stored at −70° C. till analysis. Samples were processed and analyzed using LCMS/MS. Pharmacokinetic parameters were calculated using Winonlin software. Table 4 provides the pK values (Cmax, AUC) obtained in these studies.

The target in another data set is T1, Human TRPA1 (Homo sapiens, UniProt O75762).
T1 construct: expressed in transfected cells; host or cells: CHO cells (grown with 400 μg/ml G-418)
T1 sequence (O75762 whole entry): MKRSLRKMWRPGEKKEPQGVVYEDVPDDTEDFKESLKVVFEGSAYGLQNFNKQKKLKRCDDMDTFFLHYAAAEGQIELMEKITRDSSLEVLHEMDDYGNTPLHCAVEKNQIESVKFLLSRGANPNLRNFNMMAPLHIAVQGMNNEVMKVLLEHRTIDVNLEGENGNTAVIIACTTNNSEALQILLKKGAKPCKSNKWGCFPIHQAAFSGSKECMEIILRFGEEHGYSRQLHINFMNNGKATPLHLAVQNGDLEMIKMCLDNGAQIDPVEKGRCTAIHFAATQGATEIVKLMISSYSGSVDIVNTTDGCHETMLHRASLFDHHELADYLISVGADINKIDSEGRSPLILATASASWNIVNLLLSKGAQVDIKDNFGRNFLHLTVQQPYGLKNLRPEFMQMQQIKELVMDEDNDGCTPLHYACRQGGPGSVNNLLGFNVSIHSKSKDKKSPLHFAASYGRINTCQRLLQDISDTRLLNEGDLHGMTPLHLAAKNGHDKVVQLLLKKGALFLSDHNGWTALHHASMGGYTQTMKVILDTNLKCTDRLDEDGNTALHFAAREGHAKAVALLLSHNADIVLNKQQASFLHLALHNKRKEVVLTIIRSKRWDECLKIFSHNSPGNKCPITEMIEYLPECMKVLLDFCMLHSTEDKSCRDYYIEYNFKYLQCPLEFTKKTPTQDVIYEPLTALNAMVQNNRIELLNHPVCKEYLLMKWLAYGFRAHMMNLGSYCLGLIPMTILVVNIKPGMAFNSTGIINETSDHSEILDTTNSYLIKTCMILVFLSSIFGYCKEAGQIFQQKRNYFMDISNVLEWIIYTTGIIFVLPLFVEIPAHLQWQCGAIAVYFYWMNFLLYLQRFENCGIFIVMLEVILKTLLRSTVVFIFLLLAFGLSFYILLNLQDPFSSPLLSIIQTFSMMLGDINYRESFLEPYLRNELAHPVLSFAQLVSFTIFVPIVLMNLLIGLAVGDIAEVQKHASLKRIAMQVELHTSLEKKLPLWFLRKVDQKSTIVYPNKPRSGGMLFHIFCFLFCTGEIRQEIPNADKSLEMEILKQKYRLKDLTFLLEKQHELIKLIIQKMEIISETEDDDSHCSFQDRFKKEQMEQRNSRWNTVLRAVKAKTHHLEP
The data set is described as follows: 45Calcium uptake assay: inhibition of AITC induced cellular uptake of radioactive calcium. The note with it: human TRPA1 expressing CHO cells, AITC 30 μM; for inhibition at 10 µM: read-out: Percentage inhibition at 10.0 μM; for inhibition at 1 µM: read-out: Percentage inhibition at 1.0 μM. Type of data set: cell-based. The protocol:
The illustrative examples of the present invention were screened for TRPA1 activity according to a modified procedure described in (a) Tóth, A. et al. Life Sciences, 2003, 73, 487-498. ([…]. et al, Proc. Natl. Acad. Sci. U.S.A., 2007, 104, 13525-13530. The screening of the compounds can be carried out by other methods and procedures known to persons skilled in the art. Screening for TRPA1 Antagonist Using the ^45Calcium Uptake Assay: The inhibition of TRPA1 receptor activation was measured as inhibition of allyl isothiocyanate (AITC) induced cellular uptake of radioactive calcium. Test compounds were dissolved in 100% DMSO to prepare 10 mM stock and then diluted using plain medium with 0.1% BSA and 1.8 mM CaCl2 to get the desired concentration. The final concentration of DMSO in the reaction was 0.5% (v/v). Human TRPA1 expressing CHO cells were grown in F-12 DMEM medium with 10% FBS, 1% penicillin-streptomycin solution, and 400 μg/ml of G-418. Cells were seeded 24 h prior to the assay in 96 well plates so as to get 50,000 cells per well on the day of experiment. Cells were treated with the test compounds for 10 minutes followed by the addition of AITC at a final concentration of 30 μM and 5 μCi/ml^45Ca^+2 for 3 minutes. Cells were washed and lysed using a buffer containing 1% Triton X-100, 0.1% deoxycholate and 0.1% SDS. Radioactivity in the lysate was measured in a Packard TopCount after addition of liquid scintillant. (Toth et al, Life Sciences (2003) 73, 487-498; McNamara C R et al, Proceedings of the National Academy of Sciences, (2007) 104, 13525-13530). Concentration response curves were plotted as a % of maximal response obtained in the absence of test antagonist. IC50 values can be calculated from concentration response curve by nonlinear regression analysis using GraphPad PRISM software.

Where [3] appears, read: parent thiazole compound of the example.
The mark [4] stands for this setting: ‘P’ substituted thiazole compound.

With `Cn1c(=O)c2c(CC(=O)Nc3nc(-c4ccc(F)c(C(F)(F)F)c4F)cs3)csc2n(C)c1=O` [parent of Example 10, N-{4-[2,4-difluoro-3-(trifluoromethyl)phenyl]-1,3-thiazol-2-yl}-2-(1,3-dimethyl-2,4-dioxo-1,2,3,4-tetrahydrothieno[2,3-d]pyrimidin-5-yl)acetamide, reference compound], the solubility at 15 min in data set [1] (setting [3]) is below 0.2 µg/mL. Moreover, in data set [2], the Cmax was below 250 ng/mL and the AUC(0-t) is below 4000 ng·h/mL.

Turning to `Cc1oc2c(c1CC(=O)Nc1nc(-c3ccc(OC(F)(F)F)c(Cl)c3)cs1)c(=O)n(C)c(=O)n2C` [parent of Example 25, N-{4-[3-chloro-4-(trifluoromethoxy)phenyl]-1,3-thiazol-2-yl}-2-(1,3,6-trimethyl-2,4-dioxo-1,2,3,4-tetrahydrofuro[2,3-d]pyrimidin-5-yl)acetamide, reference compound], the solubility at 15 min in data set [1] (setting [3]) is below 1.1 µg/mL. Also, in data set [2], the Cmax is below 250 ng/mL and the AUC(0-t) is below 3000 ng·h/mL.

Regarding `Cc1oc2c(c1CC(=O)/N=c1\scc(-c3ccc(OC(F)(F)F)c(Cl)c3)n1COP(=O)(O)O)c(=O)n(C)c(=O)n2C` [Example 25, [4-[3-Chloro-4-(trifluoromethoxy)phenyl]-2-{[(1,3,6-trimethyl-2,4-dioxo-1,2,3,4-tetrahydrofuro[2,3-d]pyrimidin-5-yl)acetyl]imino}-1,3-thiazol-3 (2H)-yl]methyl dihydrogen phosphate], in data set [1] (setting [4]), the solubility at 15 min was above 10 µg/mL. Besides, on Human TRPA1, the “Percentage inhibition at 1.0 μM” value is reported as 46.47% and the IC50 was above 500 nM. Moreover, the inhibition at 10 µM at Human TRPA1 (CHO, 10.0 μM) came out at 97.8%. Also, the “pharmacokinetic properties (Cmax and AUC) compared to the parent thiazole acetamide” value in data set [2] is “better pharmacokinetic properties”.

Consider `Cn1nc2c(c1CC(=O)Nc1nc(-c3ccc(F)c(C(F)(F)F)c3F)cs1)c(=O)n(C)c(=O)n2C` [parent of Example 28, N-(4-(2,4-difluoro-3-(trifluoromethyl)phenyl)thiazol-2-yl)-2-(2,5,7-trimethyl-4,6-dioxo-4,5,6,7-tetrahydro-2H-pyrazolo[3,4-d]pyrimidin-3-yl)acetamide, reference compound], for which, in data set [1] (setting [3]), the solubility at 15 min is below 0.1 µg/mL. Also, in data set [2], the Cmax was below 500 ng/mL and the AUC(0-t) was below 7000 ng·h/mL.

`Cn1nc2c(c1CC(=O)/N=c1\scc(-c3ccc(F)c(C(F)(F)F)c3F)n1COP(=O)(O)O)c(=O)n(C)c(=O)n2C` [Example 28, 4-(2,4-Difluoro-3-(trifluoromethyl)phenyl)-2-((2-(2,5,7-trimethyl-4,6-dioxo-4,5,6,7-tetrahydro-2H-pyrazolo[3,4-d]pyrimidin-3-yl)acetyl)imino)thiazol-3 (2H)-yl)methyl dihydrogen phosphate] gave a solubility at 15 min in data set [1] (setting [4]) above 30 µg/mL. At Human TRPA1 (CHO), the inhibition at 1 µM came out at 29.5%. The inhibition at 10 µM at Human TRPA1 (CHO, 10.0 μM) stood at 92.4%. In addition, the IC50 on Human TRPA1 was above 500 nM. In addition, the “pharmacokinetic properties (Cmax and AUC) compared to the parent thiazole acetamide” value in data set [2] was “better pharmacokinetic properties”.

In data set [1] (setting [4]), `Cc1oc2c(c1CC(=O)/N=c1\scc(-c3ccc(OC(F)(F)F)c(Cl)c3)n1COP(=O)([O-])[O-])c(=O)n(C)c(=O)n2C.[Na+].[Na+]` [Example 26, Disodium[4-[3-chloro-4-(trifluoromethoxy)phenyl]-2-{[(1,3,6-trimethyl-2,4-dioxo-1,2,3,4-tetrahydrofuro[2,3-d]pyrimidin-5-yl)acetyl]imino}-1,3-thiazol-3 (2H)-yl]methyl phosphate] yielded a solubility at 15 min above 75 µg/mL. At Human TRPA1, the “Percentage inhibition at 1.0 μM” value worked out at 12.64%. The “Percentage inhibition at 10.0 μM” value at Human TRPA1 (10.0 μM) worked out at 96.25%.

Take `Cn1c(=O)c2c(CC(=O)/N=c3\scc(-c4ccc(C(F)(F)F)c(F)c4)n3COP(=O)(O)O)csc2n(C)c1=O` [Example 11, [2-{[(1,3-Dimethyl-2,4-dioxo-1,2,3,4-tetrahydrothieno[2,3-d]pyrimidin-5-yl)acetyl]imino}-4-[3-fluoro-4-(trifluoromethyl)phenyl]-1,3-thiazol-3 (2H)-yl]methyl dihydrogen phosphate]: the “aqueous solubility over the parent thiazole acetamide” value in data set [1] was “better aqueous solubility”. Besides, at Human TRPA1, the inhibition at 1 µM was found to be 53.4% and the IC50 was above 500 nM. The inhibition at 10 µM at Human TRPA1 (10.0 μM) is 99.8%. In addition, the “pharmacokinetic properties (Cmax and AUC) compared to the parent thiazole acetamide” value in data set [2] is reported as “better pharmacokinetic properties”.

Take `Cl.Cn1c(=O)c2c(CC(=O)/N=c3\scc(-c4ccc(F)c(C(F)(F)F)c4F)n3COC(=O)CN)csc2n(C)c1=O` [Example 3, [4-[2,4-Difluoro-3-(trifluoromethyl)phenyl]-2-{[(1,3-dimethyl-2,4-dioxo-1,2,3,4-tetrahydrothieno[2,3-d]pyrimidin-5-yl)acetyl]imino}-1,3-thiazol-3 (2H)-yl]methyl glycinate hydrochloride]: the “aqueous solubility over the parent thiazole acetamide” value in data set [1] is listed as “better aqueous solubility”. Besides, on Human TRPA1, the inhibition at 1 µM was found to be 100% and the IC50 is below 100 nM. For the same molecule, the inhibition at 10 µM on Human TRPA1 (10.0 μM) was 99.9%.
